From the supplement of paper PMC4858399
Structures can show the parent of a compound that is named as a salt.

What was measured:
Conditions in all cases: exposure time 48 h
[1] = system: Caenorhabditis elegans N2; assay: lowest effective concentration for larval growth inhibition (size below effect threshold); higher = less potent
In short: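 L1 larvae of C. elegans N2 (50 per 96-well) were grown in K-medium with killed bacteria and 1% DMSO, with the chemical at 0.5, 1, 5, 10, 50, 100 or 200 µM, for 48 h at 20°C. Per-worm extinction from the Biosort stood for size and was log-transformed into well means. For each chemical, the lowest effective concentration is the first dose where plate-adjusted mean size falls under the threshold and stays under it at the higher doses, using a threshold of 5.665.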

[2] = system: Caenorhabditis elegans N2; assay: AC50 for larval growth inhibition (Hill fit); higher = less potent
In short: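 Worms were synchronised C. elegans N2 L1 larvae, 50 per well of a 96-well plate, kept 48 h at 20°C in K-medium with killed OP50, 1% DMSO and 0.5–200 µM chemical. Size was taken as COPAS Biosort extinction, log-transformed and averaged per well, using only wells with at least 10 worms. AC50 was estimated by a constrained Hill fit with weighted genetic-algorithm regression; values outside the range are censored.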

[3] = system: Caenorhabditis elegans N2; assay: mean nematode size ln(EXT) after 48 h, plate-adjusted (DMSO control set to 6) (ln(EXT), control-adjusted); higher = larger nematodes / less growth inhibition
In short: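 Each treatment used 4–6 wells of 50 synchronised C. elegans N2 L1 larvae, kept for 48 h at 20°C in K-medium with killed OP50, 1% DMSO and 0.5–200 µM chemical. Debris was excluded by a growth model after the Biosort measured per-worm extinction. Mean size per well came from natural-logged values and was plate-adjusted. That adjustment subtracted the vehicle control mean and then added 6.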

| Compound | lowest effective concentration [1] [µM] | AC50 for larval growth inhibition [2] [µM] | mean nematode size ln(EXT) (ln) ([3]; 0.5 µM) | mean nematode size ln(EXT) (ln) ([3]; 1 µM) | mean nematode size ln(EXT) (ln) ([3]; 5 µM) | mean nematode size ln(EXT) (ln) ([3]; 10 µM) | mean nematode size ln(EXT) (ln) ([3]; 50 µM) | mean nematode size ln(EXT) (ln) ([3]; 100 µM) | mean nematode size ln(EXT) (ln) ([3]; 200 µM) |
| --- | --- | --- | --- | --- | --- | --- | --- | --- | --- |
| CCCCC(CC)COC(=O)CCCCC(=O)OCC(CC)CCCC (stereo not drawn) [Di(2-ethylhexyl)adipate] | 200 | > 200 | 5.87 | 5.8 | 5.73 | 5.76 | 5.75 | 5.82 | 5.55 |
| Cc1nccn1-c1ccc(Sc2cccc(C3(C(N)=O)CCOCC3)c2)cc1 | 200 | > 200 | 5.74 | 6.03 | 5.84 | 5.88 | 5.86 | 5.81 | 5.48 |
| CCN(CC)C(=S)SSC(=S)N(CC)CC [Disulfiram] | 100 | > 200 | 5.96 | 6 | 6.03 | 5.99 | 5.86 | 5.59 | 4.56 |
| CCCCOCCOCCOCc1cc2c(cc1CCC)OCO2 [Piperonyl butoxide] | 50 | 76.9 | 5.87 | 5.86 | 5.8 | 5.86 | 5.48 | 5.43 | 5.41 |
| CCCOC(=O)c1ccc(C(=O)OCCC)nc1 [2,5-Pyridinedicarboxylic acid, dipropyl ester] | 200 | > 200 | 5.88 | 5.95 | 5.98 | 5.99 | 5.93 | 5.85 | 5.38 |
| CNC(=O)N(C)c1nnc(C(C)(C)C)s1 [Tebuthiuron] | 200 | 129 | 5.83 | 5.93 | 5.89 | 5.93 | 5.95 | 5.92 | 5.44 |
| O=C(O)C1C(C(=O)O)C2(Cl)C(Cl)=C(Cl)C1(Cl)C2(Cl)Cl (stereo not drawn) [Chlorendic acid] | 100 | > 200 | 5.71 | 5.85 | 5.82 | 5.84 | 5.76 | 5.65 | 5.45 |
| O=c1[nH]cc(F)c(=O)[nH]1 [5-Fluorouracil] | 50 | 162 | 5.8 | 5.84 | 5.91 | 5.82 | 5.63 | 5.3 | 4.19 |
| CCCCN1C(=O)[C@@H]([C@H](O)C2CCCCC2)NC(=O)C12CCN(Cc1ccc(Oc3ccc(C(=O)O)cc3)cc1)CC2 [Aplaviroc hydrochloride] | 200 | > 200 | 5.87 | 5.82 | 5.8 | 5.88 | 5.87 | 5.74 | 5.55 |
| [Cl][Hg][Cl] [Mercuric chloride] | 5 | 7.77 | 5.91 | 5.84 | 5.47 | 4.41 | 3.59 | 3.72 | 3.64 |
| CCCCOC(=O)C(C)Oc1ccc(Oc2ccc(C(F)(F)F)cn2)cc1 (stereo not drawn) [Fluazifop-butyl] | 100 | 191 | 6.21 | 6.17 | 6.11 | 6.18 | 5.87 | 5.5 | 4.66 |
| CN(C)CCOC(c1ccccc1)c1ccccc1 [Diphenhydramine hydrochloride] | 200 | > 200 | 5.87 | 5.9 | 5.91 | 5.91 | 5.78 | 5.78 | 5.39 |
| CCCCc1oc2ccccc2c1C(=O)c1cc(I)c(OCCN(CC)CC)c(I)c1 [Amiodarone HCl] | 50 | 31.9 | 5.9 | 5.96 | 5.82 | 5.72 | 4.41 | 3.85 | 3.8 |
| Clc1ccccc1C(c1ccccc1)(c1ccccc1)n1ccnc1 [Clotrimazole] | 5 | 18.8 | 5.8 | 5.74 | 5.4 | 4.95 | 3.89 | 3.9 | 3.23 |
| CC1(C(=O)Nc2ccc(O)c(Cl)c2Cl)CCCCC1 [Fenhexamid] | 200 | 112 | 5.86 | 5.87 | 5.88 | 5.96 | 6 | 5.86 | 4.71 |
| COCCOC[C@H](CC1(C(=O)N[C@H]2CC[C@@H](C(=O)O)CC2)CCCC1)C(=O)Oc1ccc2c(c1)CCC2 [Candoxatril] | 200 | > 200 | 5.96 | 5.83 | 5.92 | 5.81 | 5.91 | 5.85 | 5.66 |
| CCCCC(CC)CN1C(=O)C2C3C=CC(C3)C2C1=O (mixture of isomers) [MGK] | 200 | 185 | 5.99 | 5.99 | 5.97 | 5.98 | 5.81 | 5.84 | 4.3 |
| S=C([S-])NCCNC(=S)[S-].[Mn+2] [Maneb] | 200 | > 200 | 5.91 | 5.98 | 6.05 | 5.98 | 5.9 | 5.83 | 5.52 |
| CCNC(=O)NC(=O)/C(C#N)=N/OC [Cymoxanil] | 100 | > 200 | 6.18 | 6.05 | 6.07 | 6.11 | 5.79 | 5.58 | 4.81 |
| CCCCCCCCCCC [Undecane] | 200 | > 200 | 5.95 | 5.92 | 5.86 | 5.83 | 5.86 | 5.9 | 5.57 |
| CCCCCCCCCC(=O)O [Decanoic acid] | 200 | > 200 | 5.89 | 5.86 | 5.85 | 5.87 | 5.85 | 5.68 | 5.66 |
| On1ccccc1=S [Sodium (2-pyridylthio)-N-oxide] | 200 | > 200 | 5.88 | 5.86 | 5.84 | 5.87 | 5.74 | 5.74 | 5.51 |
| Nc1c(Cl)cc([N+](=O)[O-])cc1Cl [Dichloran] | 50 | 14.4 | 6.01 | 5.9 | 5.93 | 5.73 | 4.94 | 4.92 | 4.96 |
| CCCCCCCCCCCCCCO [1-Tetradecanol] | 10 | 19.7 | 5.94 | 5.92 | 5.87 | 5.61 | 3.67 | 3.57 | 3.42 |

| Compound | lowest effective concentration [1] [µM] | AC50 for larval growth inhibition [2] [µM] | mean nematode size ln(EXT) (ln) ([3]; 0.5 µM) | mean nematode size ln(EXT) (ln) ([3]; 1 µM) | mean nematode size ln(EXT) (ln) ([3]; 5 µM) | mean nematode size ln(EXT) (ln) ([3]; 10 µM) | mean nematode size ln(EXT) (ln) ([3]; 50 µM) | mean nematode size ln(EXT) (ln) ([3]; 100 µM) | mean nematode size ln(EXT) (ln) ([3]; 200 µM) |
| --- | --- | --- | --- | --- | --- | --- | --- | --- | --- |
| COC(=O)c1ccc(C(=O)OC)cc1 [Dimethyl terephthalate] | 200 | > 200 | 5.9 | 5.9 | 5.87 | 5.83 | 5.81 | 5.83 | 5.09 |
| Clc1cc(Cl)c2c(c1)N=C1CCCCCN1C2 | 100 | > 200 | 5.91 | 5.88 | 5.72 | 5.8 | 5.67 | 5.54 | 4.82 |
| N#Cc1c(Cl)c(Cl)c(Cl)c(C#N)c1Cl [Chlorothalonil] | 200 | 193 | 5.66 | 5.94 | 5.95 | 5.95 | 5.88 | 5.85 | 4.4 |
| CC(C)(C)c1ccccc1O [2-tert-Butylphenol] | 200 | > 200 | 5.96 | 5.94 | 5.97 | 5.92 | 5.81 | 5.81 | 4.94 |
| COCC(C)OCC(C)O (stereo not drawn) [Propanol, 1 (or 2)-(2-methoxymethylethyoxy)-] | 200 | > 200 | 5.9 | 5.9 | 5.88 | 5.85 | 5.92 | 5.82 | 5.66 |
| CN(C)C(=O)C1(N2CCCCC2)CCN(CCC2(c3ccc(Cl)c(Cl)c3)CN(C(=O)c3ccccc3)CCO2)CC1 (stereo not drawn) | 50 | 119 | 5.78 | 5.82 | 5.83 | 5.77 | 5.23 | 4.76 | 4.06 |
| CN(C)C(=O)Nc1ccc(Cl)c(Cl)c1 [Diuron] | 200 | 179 | 6.19 | 6.62 | 6.24 | 6.31 | 6.48 | 6.26 | 5.16 |
| CCCCNC(=O)n1c(NC(=O)OC)nc2ccccc21 [Benomyl] | 10 | > 200 | 6.03 | 6.07 | 5.68 | 5.58 | 5.36 | 5.4 | 4.35 |
| O=C(Nc1ccc2[nH]ccc2c1)c1cc2cc(F)ccc2n1Cc1cccc(F)c1 | 1 | 6.54 | 5.77 | 5.57 | 5.5 | 3.83 | 3.84 | 3.62 | 3.51 |
| CCc1nn(C2CCCCC2)c2cc(C3(C#N)CCC(C(=O)O)CC3)ccc12 (stereo not drawn) | 200 | > 200 | 5.91 | 5.88 | 5.86 | 5.93 | 5.81 | 5.67 | 5.45 |
| CCCCCCCCN(C)CCCCCCCC [N-Methyldioctylamine] | 200 | 182 | 5.78 | 5.86 | 5.87 | 5.75 | 5.78 | 5.83 | 4.13 |
| O=C(O)CCCCC(=O)O [Adipic acid] | 200 | > 200 | 5.82 | 5.73 | 5.75 | 5.76 | 5.76 | 5.74 | 5.5 |
| CCOC1Oc2ccc(OS(C)(=O)=O)cc2C1(C)C (stereo not drawn) [Ethofumesate] | 200 | 198 | 6.01 | 6.03 | 6.14 | 6.03 | 6.14 | 6.11 | 5.44 |
| C=CCc1ccc2c(c1)OCO2 [Safrole] | 200 | 188 | 6.12 | 6.08 | 5.92 | 6.02 | 5.96 | 6.05 | 5.62 |
| O=C(O)C1(c2ccc3c(c2)OC[C@H](Cc2ccc(-c4ccccc4)cc2)[C@H]3O)CCCC1 | 50 | 52.8 | 5.91 | 5.83 | 5.77 | 5.9 | 5.16 | 4.25 | 4.18 |
| O=C(O)C(F)(F)C(F)(F)C(F)(F)C(F)(F)C(F)(F)C(F)(F)C(F)(F)F [Perfluorooctanoic acid] | 100 | 60.2 | 6 | 6 | 5.94 | 6.02 | 5.75 | 5.24 | 5.31 |
| Nc1ccc(Oc2ccc(N)cc2)cc1 [4,4'-Oxydianiline] | 200 | > 200 | 5.84 | 5.87 | 5.84 | 5.83 | 5.54 | 5.83 | 5.39 |
| CNC(=O)Oc1cccc2c1OC(C)(C)C2 [Carbofuran] | 100 | 198 | 5.92 | 5.92 | 5.84 | 5.89 | 5.75 | 5.39 | 4.54 |
| Nc1c(Cl)c(F)nc(OCC(=O)O)c1Cl [Fluroxypyr] | 200 | > 200 | 5.6 | 5.62 | 5.73 | 5.61 | 5.75 | 5.78 | 5.64 |
| COP(=S)(OC)SCN1C(=O)c2ccccc2C1=O [Phosmet] | 10 | > 200 | 5.89 | 5.76 | 5.86 | 5.61 | 5.66 | 5.52 | 5.02 |
| CN(C)NC(=O)CCC(=O)O [Daminozide] | 200 | > 200 | 6.43 | 6.07 | 6.34 | 6.17 | 6 | 6.01 | 5.44 |
| CCC(C)(C)C(=O)O[C@H]1C[C@@H](C)C=C2C=C[C@H](C)[C@H](CC[C@@H]3C[C@@H](O)CC(=O)O3)[C@H]21 [Simvastatin] | 100 | > 200 | 5.79 | 5.93 | 6 | 5.84 | 5.7 | 5.39 | 4.67 |
| C#CCOS(=O)OC1CCCCC1Oc1ccc(C(C)(C)C)cc1 (stereo not drawn) [Propargite] | 200 | 150 | 5.95 | 6.19 | 5.99 | 6.05 | 5.82 | 5.88 | 3.35 |
